Consider 13 molecules from US20240270821A1, “GIP/GLP1/GCG TRI-RECEPTOR AGONISTS AND USES THEREOF” (priority 2023, published 2024).

Holding throughout (type): cell-based
One assay deals with human GcgR (Homo sapiens, UniProt P47871). Description: Functional cAMP activity in the presence of 1% HSA. The conditions noted are these: read-out: cAMP Rel EC50, hGcgR.
A further assay concerns the target hGcgR (Homo sapiens, UniProt P47871). The assay is described as follows: Functional cAMP activation in the presence of 0.1% casein (no HSA). The conditions noted are these: read-out: Relative cAMP EC50, hGcgR.
In assay [1] the target is T1, hGIPR (Homo sapiens, UniProt P48546).
T1 sequence (P48546 22-466): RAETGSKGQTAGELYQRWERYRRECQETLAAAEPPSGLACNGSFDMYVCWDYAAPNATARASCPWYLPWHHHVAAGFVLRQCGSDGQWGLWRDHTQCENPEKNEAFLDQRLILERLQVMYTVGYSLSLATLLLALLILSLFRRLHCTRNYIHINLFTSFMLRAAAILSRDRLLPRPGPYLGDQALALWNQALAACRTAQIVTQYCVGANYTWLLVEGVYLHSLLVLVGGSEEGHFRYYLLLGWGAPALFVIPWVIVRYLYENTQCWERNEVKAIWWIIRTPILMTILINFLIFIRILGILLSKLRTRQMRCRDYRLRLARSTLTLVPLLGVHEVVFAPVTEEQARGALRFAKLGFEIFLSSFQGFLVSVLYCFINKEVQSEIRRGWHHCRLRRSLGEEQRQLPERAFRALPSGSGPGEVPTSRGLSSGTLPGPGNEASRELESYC
Described as above. The note with it: read-out: Relative cAMP EC50, hGIPR.

For assay [2], the target named is T2, hGLP-1R (Homo sapiens, UniProt P43220). Description: Functional cAMP activity in the presence of 1% HSA. The conditions noted are these: read-out: cAMP Rel EC50, hGLP-1R.
T2 sequence (P43220 24-463): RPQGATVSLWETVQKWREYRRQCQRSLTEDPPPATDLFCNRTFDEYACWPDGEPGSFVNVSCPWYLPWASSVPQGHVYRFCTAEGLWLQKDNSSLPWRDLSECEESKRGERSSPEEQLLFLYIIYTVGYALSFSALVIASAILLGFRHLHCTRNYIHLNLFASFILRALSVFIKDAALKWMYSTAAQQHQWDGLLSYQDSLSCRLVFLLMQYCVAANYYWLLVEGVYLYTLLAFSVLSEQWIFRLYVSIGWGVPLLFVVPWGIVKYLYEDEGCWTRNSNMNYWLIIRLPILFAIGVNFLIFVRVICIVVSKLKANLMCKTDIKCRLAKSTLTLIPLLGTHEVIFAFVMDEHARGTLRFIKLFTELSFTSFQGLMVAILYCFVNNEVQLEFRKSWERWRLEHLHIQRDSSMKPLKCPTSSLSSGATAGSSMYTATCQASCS
Assay [3] addresses T2, hGLP-1R. The assay is described as follows: Functional cAMP activation in the presence of 0.1% casein (no HSA). The conditions noted are these: read-out: Relative cAMP EC50, hGLP-1R.
Assay [4] concerns the target T1, hGIPR. Description: Functional cAMP activity in the presence of 1% HSA. The note with it: read-out: cAMP Rel EC50, hGIPR.
Where [5] appears, read: in the presence of 0.1% casein (no HSA), geometric mean.
[6] abbreviates: 0.1% casein, no HSA, geometric mean.

Where two headings read alike, the source gives them in different places. Starred links: 1 amine or outer side, 2 acyl side, 3 side chain; linkers in the order of their positions; H or OH if unused. Non-standard residues stand in square brackets, D forms with d. Residues, ends and D or L forms follow the SMILES beside them. Groups on a side chain read outwards from the residue. No end group written: not given here. *: point of attachment. C20 diacid = O=C(O)CCCCCCCCCCCCCCCCCCC(=O)*; C18 diacid = O=C(O)CCCCCCCCCCCCCCCCC(=O)*; αMePhe(2-F) = C[C@](N)(Cc1ccccc1F)C(=O)O; γGlu = O=C(O)[C@H](CCC(=O)[*:2])N[*:1]; αMe4Pal = C[C@](N)(Cc1ccncc1)C(=O)O; αMeY = C[C@](N)(Cc1ccc(O)cc1)C(=O)O; 4Pal = N[C@@H](Cc1ccncc1)C(=O)O; αMeL = CC(C)C[C@](C)(N)C(=O)O; αMeS = C[C@](N)(CO)C(=O)O; Orn = NCCC[C@H](N)C(=O)O; AEEA = NCCOCCOCC(=O)O; Aib = CC(C)(N)C(=O)O

The EC50 is the concentration that produces a half-maximal response.
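Throughout, for Relative cAMP EC50, hGIPR: intracellular cAMP rise after 30 min at 37 °C read by HTRF against a standard curve, scaled between buffer alone (0%) and top control ligand concentration (100%), four-parameter fit.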
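Throughout, for Relative cAMP EC50, hGLP-1R: intracellular cAMP rise after 30 min at 37 °C read by HTRF, normalized between buffer only (0%) and maximal control ligand (100%), four-parameter variable-slope fit.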
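Throughout, for Relative cAMP EC50, hGcgR: intracellular cAMP rise after 30 min at 37 °C, read by HTRF against a cAMP standard curve, scaled from buffer only (0%) to maximal control ligand response (100%).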

Chain of hGcgR (P47871 26-477): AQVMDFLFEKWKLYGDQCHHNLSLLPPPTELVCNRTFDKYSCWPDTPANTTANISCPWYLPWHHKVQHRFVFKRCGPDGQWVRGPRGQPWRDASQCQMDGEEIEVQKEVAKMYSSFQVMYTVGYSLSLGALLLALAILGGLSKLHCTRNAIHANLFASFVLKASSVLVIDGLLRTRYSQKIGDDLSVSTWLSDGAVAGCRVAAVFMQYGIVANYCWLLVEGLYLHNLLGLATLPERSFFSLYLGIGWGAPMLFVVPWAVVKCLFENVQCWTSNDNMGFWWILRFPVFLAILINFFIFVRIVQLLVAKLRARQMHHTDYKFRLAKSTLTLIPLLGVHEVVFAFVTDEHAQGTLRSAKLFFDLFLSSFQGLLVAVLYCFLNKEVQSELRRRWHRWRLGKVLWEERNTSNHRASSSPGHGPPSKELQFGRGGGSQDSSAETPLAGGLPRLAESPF
Chain of human GcgR (P47871 26-477): as above

With `CC[C@H](C)[C@H](NC(=O)[C@H](Cc1ccccc1)NC(=O)[C@H](C)NC(=O)[C@](C)(Cc1ccncc1)NC(=O)[C@H](CCC(N)=O)NC(=O)[C@H](C)NC(=O)[C@H](CCCCNC(=O)COCCOCCNC(=O)CC[C@H](NC(=O)CC[C@H](NC(=O)CCCCCCCCCCCCCCCCC(=O)O)C(=O)O)C(=O)O)NC(=O)[C@H](CCCN)NC(=O)[C@H](CC(=O)O)NC(=O)[C@H](CC(C)C)NC(=O)[C@](C)(CC(C)C)NC(=O)[C@H](CCC(N)=O)NC(=O)[C@H](CO)NC(=O)[C@H](Cc1ccncc1)NC(=O)[C@H](CC(=O)O)NC(=O)[C@H](CO)NC(=O)[C@@H](NC(=O)[C@H](Cc1ccccc1)NC(=O)[C@@H](NC(=O)CNC(=O)[C@H](CCC(N)=O)NC(=O)C(C)(C)NC(=O)[C@@H](N)Cc1ccc(O)cc1)[C@@H](C)O)[C@@H](C)O)C(=O)N[C@@H](CCC(=O)O)C(=O)N[C@@H](Cc1ccc(O)cc1)C(=O)N[C@@H](CC(C)C)C(=O)N[C@H](C(=O)N[C@@H](CCC(=O)O)C(=O)N[C@H](C)C(=O)NCC(=O)N1CCC[C@H]1C(=O)N[C@@H](CO)C(=O)N[C@@H](CO)C(=O)NCC(=O)N[C@@H](C)C(=O)N1CCC[C@H]1C(=O)N1CCC[C@H]1C(=O)N1CCC[C@H]1C(=O)N[C@@H](CO)C(=O)NCC(=O)N[C@@H](CO)C(=O)N[C@@H](CCC(=O)O)C(N)=O)[C@@H](C)CC` [Example 1022], the EC50 on human GcgR was determined as 586 nM; at hGcgR (setting [5]), 6.93 nM; on hGIPR [1] (setting [5]), 0.35 nM; at hGLP-1R [2] it was 203 nM; on hGLP-1R [3] (setting [5]), 3.28 nM; on hGIPR [4], 27.9 nM.

On to “H-Y[Aib]QGTFTSD[4Pal]SQ[αMeL]LD[Orn]K([AEEA-γGlu-C18 diacid])AQ[αMe4Pal]AFIE[αMeY]LIEGGPSSGAPPPSGSEE-NH2 [Example 1041]”, for which the EC50 at human GcgR was 1720 nM; on hGcgR (setting [5]) it was 7.71 nM; on hGIPR [1] (setting [5]), 0.365 nM; at hGLP-1R [2], 316 nM; on hGLP-1R [3] (setting [5]), 1.24 nM; on hGIPR [4] it was 75.7 nM.

As to “Y[Aib]QGTFTSDFS[Orn][αMeL]LDKK([AEEA-γGlu-C18 diacid])AQ[Aib]AFIEYLIE[Aib]GPSSGAPPPSGS-NH2 [Example 796]”, the EC50 on human GcgR stood at 1000 nM; at hGcgR (setting [5]), 5.3 nM; on hGIPR [1] (setting [5]), 0.098 nM; on hGLP-1R [2], 125 nM; on hGLP-1R [3] (setting [5]), 0.602 nM; on hGIPR [4] it was 17.5 nM.

For the molecule “H-Y[Aib]QGTFTSD[4Pal]SQ[αMeL]LD[Orn]K([γGlu-γGlu-C18 diacid])AQ[αMe4Pal]QFIE[αMeY]LIEGGPSSGAPPPSGSEE-NH2 [Example 1046]”, the EC50 is 1680 nM at human GcgR; 10 nM on hGcgR (setting [5]); 0.352 nM at hGIPR [1] (setting [5]); 528 nM on hGLP-1R [2]; 1.94 nM on hGLP-1R [3] (setting [5]); 85 nM at hGIPR [4].

For “Y[Aib]QGTFTSD[4Pal]SQ[αMeL]LDKK([AEEA-γGlu-C18 diacid])AQ[αMe4Pal]AFIEYLIE[dA]GPSSGAPPPSGS-NH2 [Example 829]”, the EC50 on human GcgR turned out to be 325 nM; at hGcgR (setting [5]), 2.41 nM; on hGIPR [1] (setting [5]) it was 0.124 nM; on hGLP-1R [2], 130 nM; on hGLP-1R [3] (setting [5]) it was 1.15 nM; at hGIPR [4], 22.4 nM.

For the molecule “Y[Aib]QGT[αMePhe(2-F)]TSD[4Pal][αMeS]I[αMeL]LD[Orn]K([γGlu-γGlu-C18 diacid])AQ[αMe4Pal]EFI[dE][αMeY]LIEGGPSSGAPPPSGE-NH2 [Example 1150]”, the concentration giving a half-maximal response (EC50) on human GcgR was 161 nM; on hGcgR (setting [5]), 1.17 nM; on hGIPR [1] (setting [5]) it was 0.0069 nM; at hGLP-1R [2], 30 nM; on hGLP-1R [3] (setting [5]), 0.278 nM; on hGIPR [4], 0.583 nM.

For the molecule `CC[C@H](C)[C@H](NC(=O)[C@H](CC(C)C)NC(=O)[C@](C)(Cc1ccc(O)cc1)NC(=O)[C@@H](CCC(=O)O)NC(=O)[C@@H](NC(=O)[C@H](Cc1ccccc1)NC(=O)[C@H](CC(N)=O)NC(=O)C(C)(C)NC(=O)[C@H](CCC(N)=O)NC(=O)[C@H](C)NC(=O)[C@H](CCCCNC(=O)COCCOCCNC(=O)CC[C@H](NC(=O)CCCCCCCCCCCCCCCCC(=O)O)C(=O)O)NC(=O)[C@H](CCCN)NC(=O)[C@H](CC(=O)O)NC(=O)[C@H](CC(C)C)NC(=O)[C@](C)(CC(C)C)NC(=O)[C@@H](NC(=O)[C@](C)(CO)NC(=O)[C@H](Cc1ccncc1)NC(=O)[C@H](CC(=O)O)NC(=O)[C@H](CO)NC(=O)[C@@H](NC(=O)[C@](C)(Cc1ccccc1F)NC(=O)[C@@H](NC(=O)CNC(=O)[C@H](CCC(N)=O)NC(=O)C(C)(C)NC(=O)[C@@H](N)Cc1ccc(O)cc1)[C@@H](C)O)[C@@H](C)O)[C@@H](C)CC)[C@@H](C)CC)C(=O)N[C@@H](CCC(=O)O)C(=O)NCC(=O)NCC(=O)N1CCC[C@H]1C(=O)N[C@@H](CO)C(=O)N[C@@H](CO)C(=O)NCC(=O)N[C@@H](CCC(=O)O)C(=O)N1CCC[C@H]1C(=O)N1CCC[C@H]1C(=O)N1CCC[C@H]1C(=O)N[C@@H](CCC(=O)O)C(N)=O` [Example 456] (H-Y[Aib]QGT[αMePhe(2-F)]TSD[4Pal][αMeS]I[αMeL]LD[Orn]K([AEEA-γGlu-C18 diacid])AQ[Aib]NFI[dE][αMeY]LIEGGPSSGEPPPE-NH2), the EC50 on human GcgR amounted to 230 nM; on hGcgR it was 3.48 nM; on hGIPR [1], 0.00913 nM; at hGLP-1R [2] it was 12.5 nM; on hGLP-1R [3] it was 0.19 nM; on hGIPR [4], 0.993 nM.

As for “H-Y[Aib]QGT[αMePhe(2-F)]TSD[4Pal][αMeS]I[αMeL]LD[Orn]K([AEEA-γGlu-C18 diacid])AQ[αMe4Pal]EFI[dE][αMeY]LIEGGPPSGEPPPEGE-NH2 [Example 1191]”, the 50% effective concentration (EC50) at human GcgR was determined as 243 nM; on hGcgR (setting [6]) it was 3.06 nM; at hGIPR [1] (setting [6]), 0.00992 nM; at hGLP-1R [2], 82.3 nM; at hGLP-1R [3] (setting [6]), 0.945 nM; at hGIPR [4] it was 0.931 nM.

Regarding “Y[Aib]QGT[αMePhe(2-F)]TSD[4Pal][αMeS]I[αMeL]LD[Orn]K([AEEA-γGlu-C18 diacid])AQ[αMe4Pal]EFI[dE][αMeY]LIEGGPSSGEPPPESE-NH2 [Example 1147]”, the EC50 at human GcgR was found to be 167 nM; on hGcgR (setting [5]), 1.17 nM; on hGIPR [1] (setting [5]), 0.00753 nM; at hGLP-1R [2], 45.4 nM; on hGLP-1R [3] (setting [5]), 0.347 nM; at hGIPR [4] it was 0.831 nM.

On to “H-Y[Aib]QGTFTSDYSK[αMeL]LDKK([AEEA-γGlu-C20 diacid])AQ[Aib]AFVQWLLEGGPSSGEPPPSEG-NH2 [Example 343]”, for which the 50% effective concentration (EC50) amounted to 475 nM at human GcgR; 6.83 nM at hGcgR (setting [5]); 0.184 nM on hGIPR [1] (setting [5]); 178 nM on hGLP-1R [2]; 1.31 nM at hGLP-1R [3] (setting [5]); 16.7 nM on hGIPR [4].

Consider “H-Y[Aib]QGTFTSD[4Pal]S[Orn][αMeL]LD[Orn]K([γGlu-γGlu-C18 diacid])AQ[Aib]AFIEYLLAGGPSSGAPPPSGSEE-NH2 [Example 1069]”, for which the EC50 on human GcgR turned out to be 2160 nM; at hGcgR (setting [5]), 21.2 nM; at hGIPR [1] (setting [5]), 0.417 nM; on hGLP-1R [2], 1290 nM; at hGLP-1R [3] (setting [5]), 8.87 nM; at hGIPR [4], 39.5 nM.

“H-Y[Aib]QGTFTSD[4Pal]SQ[αMeL]LD[Orn]K([AEEA-γGlu-C18 diacid])AQ[αMe4Pal]AFIEYLIQ[Aib]GPSSGEPPPSGSEE-NH2 [Example 1096]”: the concentration for a half-maximal effect (EC50) was determined as 397 nM on human GcgR; 3.94 nM at hGcgR (setting [5]); 0.0799 nM on hGIPR [1] (setting [5]); 194 nM on hGLP-1R [2]; 1.47 nM at hGLP-1R [3] (setting [5]); 11.6 nM at hGIPR [4].

For “H-Y[Aib]QGTFTSDFS[Orn][αMeL]LDKK([γGlu-AEEA-γGlu-C18 diacid])AQ[Aib]AFIEYLLE[Aib]GPSSGAPPPSG[4Pal]-NH2 [Example 277]”, the concentration for a half-maximal effect (EC50) was determined as 1690 nM at human GcgR; 10.6 nM at hGcgR (setting [5]); 0.0672 nM at hGIPR [1] (setting [5]); 639 nM on hGLP-1R [2]; 5.56 nM at hGLP-1R [3] (setting [5]); 13.3 nM at hGIPR [4].
